Experiments:
[1] = Compound cytotoxicity, XTT-based colorimetric assay; format: cell-based; details: human; uninfected MT2 cells, day 4, XTT
Description: Compound cytotoxicity and the corresponding CC50 values were determined using the same protocol as described in the antiviral assay except that uninfected cells were used. Cytotoxicity was assessed on day 4 in uninfected MT2 cells by using an XTT (2,3-bis[2-Methoxy-4-nitro-5-sulfophenyl]-2H-tetrazolium-5-carboxyanilide inner salt)-based colorimetric assay (Sigma-Aldrich, St Louis, Mo.).

[2] = test system: recombinant NL4-3 virus (Renilla luciferase in nef); test: HIV cell culture assay (antiviral activity, luciferase readout in MT-2 cells); format: cell-based; details: Renilla, NL43
Description: HIV cell culture assay—MT=2 cells, 293T cells and the proviral DNA clone of NL4-3 virus were obtained from the NIH AIDS Research and Reference Reagent Program. MT=2 cells were propagated in RPMI 1640 media supplemented with 10% heat inactivated fetal bovine serum (FBS), […] penicillin G and up to 100 units/mL streptomycin. The 293T cells were propagated in DMEM media supplemented with 10% heat inactivated FBS, […] penicillin G and […] streptomycin. A recombinant NL4-3 proviral clone, in which a section of the nef gene was replaced with the Renilla luciferase gene, was used to make the reference virus used in these studies. The recombinant virus was prepared through transfection of the recombinant NL4-3 proviral clone into 293T cells using Transit-293 Transfection Reagent from Mirus Bio LLC (Madison, Wis.). Supernatent was harvested after 2-3 days and the amount of virus present was titered in MT=2 cells using luciferase enzyme activity as a marker by measuring luciferase enzyme activity. Luciferase was quantitated using the EnduRen Live Cell Substrate from Promega (Madison, Wis.). Antiviral activities of compounds toward the recombinant virus were quantified by measuring luciferase activity in MT=2 cells infected for 4-5 days with the recombinant virus in the presence of serial dilutions of the compound.
The 50% effective concentration (EC50) was calculated by using the exponential form of the median effect equation where (Fa)=1/[1+(ED50/drug conc.)m] (Johnson V A, Byington R T. Infectivity Assay. In Techniques in HIV Research. ed. Aldovini A, Walker B D. 71-76. New York: Stockton Press. 1990). The 50% inhibitory concentration (EC50) was calculated by using the exponential form of the median effect equation where percent inhibition=1/[1+(EC50/drug concentration)m], where m is a parameter that reflects the slope of the concentration-response curve.

**Q.** Which CC50 at 4 days [1] does the source give for `COc1nc(C)cc(-c2ccc3c(=O)n(-c4ccc(Cl)c5c(NS(C)(=O)=O)nn(C)c45)c([C@H](Cc4cc(F)cc(F)c4)NC(=O)Cn4nc(C(F)F)c5c4C(F)(F)[C@@H]4C[C@H]54)nc3c2)n1` (atropisomer, axis not shown; (P)) [Example 16, N—((S)-1-((3P)-3-(4-chloro-1-methyl-3-(methylsulfonamido)-1H-indazol-7-yl)-7-(2-methoxy-6-methylpyrimidin-4-yl)-4-oxo-3,4-dihydroquinazolin-2-yl)-2-(3,5-difluorophenyl)ethyl)-2-((3bS,4aR)-3-(difluoromethyl)-5,5-difluoro-3b,4,4a,5-tetrahydro-1H-cyclopropa[3,4]cyclopenta[1,2-c]pyrazol-1-yl)acetamide] here?
**A.** The CC50 at 4 days was greater than 500 nM.

**Q.** And the EC50 [2]?
**A.** The EC50 was 0.11 nM.

**Q.** What does the source list for `Cn1nc(NS(C)(=O)=O)c2c(Cl)ccc(-n3c([C@H](Cc4cc(F)cc(F)c4)NC(=O)Cn4nc(C(F)F)c5c4C(F)(F)[C@@H]4C[C@H]54)nc4cc(-c5csc(C(F)(F)F)n5)ccc4c3=O)c21` (atropisomer, axis not shown; (P)) [Example 1, N—((S)-1-((3P)-3-(4-chloro-1-methyl-3-(methylsulfonamido)-1H-indazol-7-yl)-4-oxo-7-(2-(trifluoromethyl)thiazol-4-yl)-3,4-dihydroquinazolin-2-yl)-2-(3,5-difluorophenyl)ethyl)-2-((3bS,4aR)-3-(difluoromethyl)-5,5-difluoro-3b,4,4a,5-tetrahydro-1H-cyclopropa[3,4]cyclopenta[1,2-c]pyrazol-1-yl)acetamide]?
**A.** CC50 at 4 days [1]: > 100 nM; EC50 [2]: 0.091 nM

**Q.** With `Cn1nc(NS(C)(=O)=O)c2c(Cl)ccc(-n3c([C@H](Cc4cc(F)cc(F)c4)NC(=O)Cn4nc(C(F)F)c5c4C(F)(F)[C@@H]4C[C@H]54)nc4cc(-c5ccc(F)nc5F)ccc4c3=O)c21` (atropisomer, axis not shown; (P)) [Example 6, N—((S)-1-((3P)-3-(4-chloro-1-methyl-3-(methylsulfonamido)-1H-indazol-7-yl)-7-(2,6-difluoropyridin-3-yl)-4-oxo-3,4-dihydroquinazolin-2-yl)-2-(3,5-difluorophenyl)ethyl)-2-((3bS,4aR)-3-(difluoromethyl)-5,5-difluoro-3b,4,4a,5-tetrahydro-1H-cyclopropa[3,4]cyclopenta[1,2-c]pyrazol-1-yl)acetamide] as the compound, how does the EC50 [2] read?
**A.** Its EC50 is 0.047 nM.

**Q.** For `Cn1nc(NS(C)(=O)=O)c2c(Cl)ccc(-n3c([C@H](Cc4cc(F)cc(F)c4)NC(=O)Cn4nc(C(F)F)c5c4C(F)(F)[C@@H]4C[C@H]54)nc4cc(-c5cnn(CCF)c5)ccc4c3=O)c21` (atropisomer, axis not shown; (P)) [Example 42, N—((S)-1-((3P)-3-(4-chloro-1-methyl-3-(methylsulfonamido)-1H-indazol-7-yl)-7-(1-(2-fluoroethyl)-1H-pyrazol-4-yl)-4-oxo-3,4-dihydroquinazolin-2-yl)-2-(3,5-difluorophenyl)ethyl)-2-((3bS,4aR)-3-(difluoromethyl)-5,5-difluoro-3b,4,4a,5-tetrahydro-1H-cyclopropa[3,4]cyclopenta[1,2-c]pyrazol-1-yl)acetamide], which CC50 at 4 days [1] is on record?
**A.** The CC50 at 4 days was greater than 100 nM.

**Q.** And the EC50 [2]?
**A.** The EC50 was 0.068 nM.

**Q.** For `Cn1nc(NS(C)(=O)=O)c2c(Cl)ccc(-n3c([C@H](Cc4cc(F)cc(F)c4)NC(=O)Cn4nc(C(F)F)c5c4C(F)(F)[C@@H]4C[C@H]54)nc4cc(-c5ccn(CCOC(F)(F)F)n5)ccc4c3=O)c21` (atropisomer, axis not shown; (P)) [Example 54, N—((S)-1-((3P)-3-(4-chloro-1-methyl-3-(methylsulfonamido)-1H-indazol-7-yl)-4-oxo-7-(1-(2-(trifluoromethoxy)ethyl)-1H-pyrazol-3-yl)-3,4-dihydroquinazolin-2-yl)-2-(3,5-difluorophenyl)ethyl)-2-((3bS,4aR)-3-(difluoromethyl)-5,5-difluoro-3b,4,4a,5-tetrahydro-1H-cyclopropa[3,4]cyclopenta[1,2-c]pyrazol-1-yl)acetamide], which CC50 at 4 days [1] is on record?
**A.** The CC50 at 4 days was greater than 100 nM.

**Q.** And the EC50 [2]?
**A.** The EC50 was 0.098 nM.

**Q.** For `Cn1nc(NS(C)(=O)=O)c2c(Cl)ccc(-n3c([C@H](Cc4cc(F)cc(F)c4)NC(=O)Cn4nc(C(F)F)c5c4C(F)(F)[C@@H]4C[C@H]54)nc4cc(-c5ccnc(C(F)(F)F)n5)ccc4c3=O)c21` (atropisomer, axis not shown; (P)) [Example 27, N—((S)-1-((3P)-3-(4-chloro-1-methyl-3-(methylsulfonamido)-1H-indazol-7-yl)-4-oxo-7-(2-(trifluoromethyl)pyrimidin-4-yl)-3,4-dihydroquinazolin-2-yl)-2-(3,5-difluorophenyl)ethyl)-2-((3bS,4aR)-3-(difluoromethyl)-5,5-difluoro-3b,4,4a,5-tetrahydro-1H-cyclopropa[3,4]cyclopenta[1,2-c]pyrazol-1-yl)acetamide], which CC50 at 4 days [1] is on record?
**A.** Its CC50 at 4 days is greater than 100 nM.

**Q.** What about the EC50 [2] of the same compound?
**A.** Its EC50 is 0.066 nM.

**Q.** Which results are given for `Cc1nc2cc(-c3ccc4c(=O)n(-c5ccc(Cl)c6c(NS(C)(=O)=O)nn(C)c56)c([C@H](Cc5cc(F)cc(F)c5)NC(=O)Cn5nc(C(F)F)c6c5C(F)(F)[C@@H]5C[C@H]65)nc4c3)ccc2s1` (atropisomer, axis not shown; (P)) [Example 36, N—((S)-1-((3P)-3-(4-chloro-1-methyl-3-(methylsulfonamido)-1H-indazol-7-yl)-7-(2-methylbenzo[d]thiazol-5-yl)-4-oxo-3,4-dihydroquinazolin-2-yl)-2-(3,5-difluorophenyl)ethyl)-2-((3bS,4aR)-3-(difluoromethyl)-5,5-difluoro-3b,4,4a,5-tetrahydro-1H-cyclopropa[3,4]cyclopenta[1,2-c]pyrazol-1-yl)acetamide]?
**A.** CC50 at 4 days [1]: > 100 nM; EC50 [2]: 1.8 nM

**Q.** For `Cn1nc(NS(C)(=O)=O)c2c(Cl)ccc(-n3c([C@H](Cc4cc(F)cc(F)c4)NC(=O)Cn4nc(C(F)F)c5c4C(F)(F)[C@@H]4C[C@H]54)nc4cc(-c5ccn(CCCC(F)(F)F)n5)ccc4c3=O)c21` (atropisomer, axis not shown; (P)) [Example 53, N—((S)-1-((3P)-3-(4-chloro-1-methyl-3-(methylsulfonamido)-1H-indazol-7-yl)-4-oxo-7-(1-(4,4,4-trifluorobutyl)-1H-pyrazol-3-yl)-3,4-dihydroquinazolin-2-yl)-2-(3,5-difluorophenyl)ethyl)-2-((3bS,4aR)-3-(difluoromethyl)-5,5-difluoro-3b,4,4a,5-tetrahydro-1H-cyclopropa[3,4]cyclopenta[1,2-c]pyrazol-1-yl)acetamide], which CC50 at 4 days [1] is on record?
**A.** Its CC50 at 4 days is greater than 100 nM.

**Q.** What about the EC50 [2] of the same compound?
**A.** Its EC50 is 0.1 nM.

**Q.** Which EC50 [2] does the source give for `Cn1nc(NS(C)(=O)=O)c2c(Cl)ccc(-n3c([C@H](Cc4cc(F)cc(F)c4)NC(=O)Cn4nc(C(F)F)c5c4C(F)(F)[C@@H]4C[C@H]54)nc4cc(-c5ncc(F)cc5Cl)ccc4c3=O)c21` (atropisomer, axis not shown; (P)) [Example 10, N—((S)-1-((3P)-3-(4-chloro-1-methyl-3-(methylsulfonamido)-1H-indazol-7-yl)-7-(3-chloro-5-fluoropyridin-2-yl)-4-oxo-3,4-dihydroquinazolin-2-yl)-2-(3,5-difluorophenyl)ethyl)-2-((3bS,4aR)-3-(difluoromethyl)-5,5-difluoro-3b,4,4a,5-tetrahydro-1H-cyclopropa[3,4]cyclopenta[1,2-c]pyrazol-1-yl)acetamide] here?
**A.** Its EC50 is 0.11 nM.

Source: patent US20230013823A1, “INHIBITORS OF HUMAN IMMUNODEFICIENCY VIRUS REPLICATION” (VIV HEALTHCARE UK (No. 5) LIMITED, priority 2019, published 2023)
